{
  "source": "patent US20220326218A1",
  "about": "“COMPOSITION AND METHOD FOR INHIBITING BORC COMPLEX TO TREAT CANCERS WITH NF1 DEFICIENCY AND DYSREGULATED RAS SIGNALING” (THE TRUSTEES OF DARTMOUTH COLLEGE, priority 2019, published 2022)",
  "type_in_all_cases": "cell-based, human",
  "key": {"[1]": {"test_system": "U251-MG cells", "assay": "alamarBlue assay, U251-MG", "settings": "up to 3 days, 20 μM to 0.039 μM", "protocol": "Cells were plated at 5,000 cells/well in 96-well plates and allowed to adhere overnight. […] Cells were incubated for 72 h. 3 h prior to end of incubation, alamarBlue (Invitrogen) was added to a final concentration of 5% v/v. Fluorescence was read using a Spectramax M2 at an excitation of 544 nm and an emission of 590 nm, and fluorescence was normalized to DMSO. Each experiment contains 4 technical replicates."}, "[2]": {"test_system": "p21", "assay": "Immunofluorescence of p21 expression and nucleus size", "settings": "U87-MG, 2 μM, 24 h", "protocol": "(§1) U87-MG cells were plated at a concentration of 50,000 cells/well onto precoated poly-D-lysine (PDL) coverslips (Neuvitro) in 24-well plates (Falcon) and allowed to adhere overnight. Medium was removed and replaced with treatment-laced media normalized to DMSO, and cells were treated for the indicated timepoints. At the time of collection, cells were washed with PBS and fixed with 4% paraformaldehyde without methanol (EMS) or 100% methanol (Fischer). Coverslips were washed with Tween20-containing PBS (PBST; Fischer). Following permeabilization with 0.5% Triton X-100 in PBS (Fischer), coverslips were blocked for 1 h at room temperature in IF Buffer (0.05% azide, 0.2% Triton X-100, 2% Normal Goat Serum or, for 8-OHG, Normal Donkey Serum). The following primary antibodies were used for 1 hour at room temperature unless specified: AlexaFluor 488 pre-conjugated anti-γ-H2AX (N1-431) mouse monoclonal (30 minutes; BD Biosciences), anti-cleaved caspase 3 (Asp175) rabbit polyclonal (Cell Signaling), anti-SQSTM1/p62 (D-3) mouse monoclonal (Santa Cruz), anti-8-Hydroxyguanosine goat polyclonal (1:200; Millipore), anti-LAMP1 (D4O1S) mouse monoclonal (O/N at 4° C.; Cell Signaling), anti-BNIP3L/Nix (D4R4B) rabbit monoclonal (O/N at 4° C.; Cell Signaling), anti-FLAG (M2) mouse monoclonal (2 hours at 37° C.; Sigma-Aldrich). […]"}, "[3]": {"test_system": "BNIP3L/Nix", "assay": "Immunofluorescence staining for mitophagy receptor BNIP3L/Nix", "settings": "U87-MG, 24 h; 2 μM Y102, 100 μM CoCl2; CoCl2 and Y102 compared with each other", "protocol": "as §1"}, "[4]": {"test_system": "PARP", "assay": "Western immunoblotting for PARP", "settings": "U87-MG", "protocol": "U87-MG cells were plated at 500,000 cells/well in 6-well plates and allowed to adhere overnight (Falcon). Medium was removed and replaced with fresh medium containing drugs or compounds for the indicated timepoints. Cells were collected after treatment by washing with PBS, harvested with trypsin plus agitation to detach cells, pelleted in a centrifuge and resuspended in PBS to wash. Cells were transferred to 1.5 mL microcentrifuge tubes, pelleted, and resuspended in RIPA lysis buffer (50 mM Tris pH 8.0, 150 mM NaCl, 1% nonidet P40, 0.5% sodium deoxycholate, and 0.05% SDS) containing 1 mM NaVO4, 1 mM NaF, 1 mM phenylmethylsulfonyl fluoride, 0.1 μg/mL antipain, 1 μM aprotinin, 100 μM benzamidine HCl, 0.1 μg/mL leupeptin, 0.1 μg/mL pepstatin, and 0.1 μg/mL soybean trypsin inhibitor. Protein was quantified using a BCA assay kit (Pierce). 50 μg of protein was prepared in 1× Laemmli sample buffer (50 mM Tris pH 6.8, 0.02% w/v bromophenol blue, 2% w/v SDS, 10% v/v glycerol, 1% v/v beta-mercaptoethanol, 12.5 mM EDTA) and separated by SDS-PAGE on a 4-15% polyacrylamide gradient gel (Bio-Rad). […]"}, "[5]": {"test_system": "U87-MG cells", "assay": "Flow cytometry cell cycle distribution (DNA content)", "settings": "2 μM, 24 h", "protocol": "U87-MG cells were plated at 500,000 cells/well in a 6-well plate and allowed to adhere overnight. The medium was replaced with cell culture media containing DMSO, 2 μM Y102, 100 nM Doxorubicin, or 100 μM CoCl2 for 24 hours. At the end of the incubation, cells were rinsed twice with PBS, trypsinized, and rinsed again with PBS prior to fixation with BD cytofix/cytoperm for 30 minutes on ice. After washing with BD perm/wash twice, cells were stained with DAPI at a final concentration 0.33 μg/mL in PBS for 30 minutes on ice. Cells were washed twice more with BD perm/wash, and resuspended in PBS for analysis. The cells were transferred to flow cytometry tubes (14-961-10, Fisherbrand) and analyzed using a MacsQuant VYB 8-color flow cytometer. DNA content was detected using the V1 channel. This experiment was repeated twice, and the percentage of cells in each cell cycle stage is shown. 50,000 events per sample were collected and cellular debris was gated out of the dataset."}, "[6]": {"test_system": "8-hydroxyguanosine (8-OHG)", "assay": "Immunofluorescence staining for oxidative stress marker 8-OHG", "settings": "U87-MG, 2 μM, 24 h", "protocol": "as §1"}},
  "data": [
    {"molecule": "Cn1cnnc1S/C=C/C(=O)c1ccc(F)cc1", "note": "[Y102]", "values": [
      {"measurement": "sensitivity of NF1-deficient cell line to treatment", "setting": "[1]", "result": "sensitive"},
      {"measurement": "nucleus size", "setting": "[2]", "result": "increase"},
      {"measurement": "p21 expression", "setting": "[2]", "result": "increase"},
      {"measurement": "expression/localization of BNIP3L/Nix on the mitochondria compared to DMSO control", "setting": "[3]", "result": "increase"},
      {"measurement": "PARP western immunoblotting as check of absent caspase-3-mediated apoptosis", "setting": "[4]", "result": "confirmed"},
      {"measurement": "cell cycle arrest (cell cycle distribution by DNA content)", "setting": "[5]", "result": "no indication"},
      {"measurement": "8-OHG compared to DMSO", "setting": "[6]", "result": "increase"},
      {"measurement": "localization of 8-OHG oxidative stress-induced damage", "setting": "[6]", "result": "both nuclear and mitochondrial DNA"}
    ]}
  ]
}
